What was measured:
CYP1A2 = test: CYP induction, CYP1A2; format: in vitro ADME
human CYP3A4 = test: CYP induction, CYP3A4
CYP2B6 = test: CYP induction, CYP2B6
TF-1 IDH2 (R140Q) cells [1] = test: GM-CSF-independent growth of TF-1 IDH2 (R140Q) cells; format: cell-based; conditions: 1 μM, 7 days
TF-1 IDH2 (R140Q) cells [2] = test: Vimentin expression in TF-1 IDH2 (R140Q) cells; format: cell-based; conditions: 7 days; 2-HG levels below 1 mM, dose >200 nM
U87MG IDH2 (R140Q) tumor = test: PK/PD in U87MG IDH2 (R140Q) mouse xenograft model; conditions: 3 consecutive doses of 25 mg/kg or above, twice daily, 12 hour interval
[3] = tested on: AMNI7577-P2 (HuKemia model); test: Survival in mutant positive AML mouse model (AMNI7577-P2, NOD/SCID mice); format: in vivo
[4] = tested on: TF-1/IDH2 (R140Q) mutant cells; test: 2-HG levels in TF-1/IDH2 (R140Q) mutant cells; format: cell-based
Description: TF-1/IDH2 (R140Q) mutant cells are treated in vitro for 7 days with vehicle (dimethylsulfoxide; […].

[5] = tested on: primary human IDH2 (R140Q) mutant AML cells; test: Ex vivo treatment of primary human AML blast cells; format: cell-based; conditions: for percentage of blast cells: from 90%, 500, 1000, 5000 nM
Excerpt: Cells are counted at Days 3, 6, 9, and 13 and normalized to DMSO control.

[6] = tested on: TF-1 IDH2 (R140Q) mutant cells; test: EPO-induced differentiation in TF-1 IDH2 (R140Q) mutant cells; format: cell-based; conditions: when 2-HG levels fall below 1 mM

Nc1nc(Nc2ccnc(C(F)(F)F)c2)nc(-c2cccc(C(F)(F)F)n2)n1 [compound 2, 6-(6-(trifluoromethyl)pyridin-2-yl)-N2-(2-(trifluoromethyl)pyridin-4-yl)-1,3,5-triazine-2,4-diamine]
induction of CYP1A2 (CYP1A2): not observed | induction of human CYP3A4 (human CYP3A4): weak inducers | induction of CYP2B6 (CYP2B6): not observed

CC(C)(O)CNc1nc(Nc2ccnc(C(F)(F)F)c2)nc(-c2cccc(C(F)(F)F)n2)n1 [compound 3, 2-Methyl-1-[(4-[6-(trifluoromethyl)pyridin-2-yl]-6-{[2-(trifluoromethyl)pyridin-4-yl]amino}-1,3,5-triazin-2-yl)amino]propan-2-ol]
GM-CSF independent growth (TF-1 IDH2 (R140Q) cells [1]): reversed | vimentin expression induced by IDH2 (R140Q) (TF-1 IDH2 (R140Q) cells [2]): reduced to baseline levels | tumor 2-HG levels (U87MG IDH2 (R140Q) tumor): decrease to baseline | Survival at study termination ([3]; 45 mg/kg PO/BID, Day 48-84): all 9 mice survived | survival in comparison to cytarabine ([3]; 5, 15, 45 mg/kg): dose dependent survival advantage | leukemia burden and differentiation ([3]; all treated animals): dose dependent decrease in leukemia and evidence of normal differentiation | intracellular levels of 2-HG ([4]; 5 μM, 7 days, 15.5 mM with DMSO): 0.08 mM | inhibition at 1 µM ([4]; 168 h, read-out: 2-HG production inhibited): > 99% | IC90 ([4]; 168 h, read-out: inhibitory concentration, 90% (IC90) for 2-HG inhibition): 160 nM | IC50 ([4]; 168 h, read-out: intracellular IC50 for 2-HG inhibition): 16 nM | population of more differentiated cells (metamyelocytes) ([5]; 9 days ex vivo): clear increase | percentage of blast cells ([5]; Day 6): 55% | percentage of blast cells ([5]; Day 9): 40% | intracellular 2-HG ([5]; ex vivo treatment): decrease | EPO-induced expression of hemoglobin gamma 1/2 and KLF-1 [6]: restores

From US10201543B2, “Therapeutically active compounds and their methods of use” (Agios Pharmaceuticals, Inc., priority 2015, dated 2019)
